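Assay format: 96-well plates, 48-hour exposure. GI50 marks 50% less growth.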 Calls of active or inactive are those of the source. Rule as the data show it: active = GI50 up to about 1.1 µM and inactive = higher.
Key:
Test in all cases: DTP human tumour cell line panel, 48 h
A549 = tested on: A549
SF-295 = tested on: SF-295
SK-MEL-5 = tested on: SK-MEL-5
HCT-15 = tested on: HCT-15
SNB-78 = tested on: SNB-78
RPMI-8226 = tested on: RPMI-8226
NCI-H460 = tested on: NCI-H460
786-0 = tested on: 786-0
K562 = tested on: K562
M14 = tested on: M14
UO-31 = tested on: UO-31
RXF 393 = tested on: RXF 393
HT-29 = tested on: HT-29
SK-OV-3 = tested on: SK-OV-3
SR = tested on: SR
SF-539 = tested on: SF-539
UACC-257 = tested on: UACC-257

SMILES | GI50 (A549) | GI50 (SF-295) | GI50 (SK-MEL-5) | GI50 (HCT-15) [µM] | GI50 (SNB-78) | GI50 (RPMI-8226) | GI50 (NCI-H460) | GI50 (786-0) | GI50 (K562) | GI50 (M14) | GI50 (UO-31) | GI50 (RXF 393) | GI50 (HT-29) | GI50 (SK-OV-3) | GI50 (SR) | GI50 (SF-539) | GI50 (UACC-257)
O=C(Nc1ccc(Cl)cc1)C1C(=O)C(=O)N(c2ccc(Cl)cc2)C1=O (centres undefined) | > 100 µM (inactive) | 93.8 µM (inactive) | > 100 µM (inactive) | 35.9 | 54 µM (inactive) | > 100 µM (inactive) | > 100 µM (inactive) | > 100 µM (inactive) | 41.1 µM (inactive) | > 100 µM (inactive) | 79.6 µM (inactive) | > 100 µM (inactive) | 74.8 µM (inactive) | > 100 µM (inactive) | > 100 µM (inactive) | > 100 µM (inactive) | 
COc1cc2cc3c4c(cc(OC)c(OC)c4c2cc1OC)CCN3C(=O)CCCC(=O)O | > 100 µM (inactive) | > 100 µM (inactive) | > 100 µM (inactive) |  | 48.1 µM (inactive) | > 100 µM (inactive) | > 100 µM (inactive) | > 100 µM (inactive) | > 100 µM (inactive) | > 100 µM (inactive) | > 100 µM (inactive) | > 100 µM (inactive) | > 100 µM (inactive) | > 100 µM (inactive) | > 100 µM (inactive) | > 100 µM (inactive) | > 100 µM (inactive)
Cc1ccccc1C1SCc2nc3ccccc3n21 (centres undefined) | > 100 µM (inactive) | 48.9 µM (inactive) | 5.19 µM (inactive) |  | > 100 µM (inactive) | 5.85 µM (inactive) |  | > 100 µM (inactive) | 3.77 µM (inactive) |  | > 100 µM (inactive) | > 100 µM (inactive) |  | > 100 µM (inactive) |  | 70.1 µM (inactive) | 4.26 µM (inactive)
S=C(N/N=C/c1ccccc1)NC1CC(c2ccccc2)Oc2ccccc21 (centres undefined) | 26.8 µM (inactive) | 16.1 µM (inactive) | 11.1 µM (inactive) |  | 22 µM (inactive) |  | 23.1 µM (inactive) | 67 µM (inactive) | 15.2 µM (inactive) | 15.3 µM (inactive) | > 100 µM (inactive) |  | 53 µM (inactive) | 11.7 µM (inactive) | > 100 µM (inactive) | 38.3 µM (inactive) | 
COc1ccc(/C=N/N=C(\N)NO)c(OC)c1C | 10.9 µM (inactive) | 21.1 µM (inactive) |  | 9.14 | 20.5 µM (inactive) | 23.7 µM (inactive) | 15.6 µM (inactive) | 16.1 µM (inactive) | 10.1 µM (inactive) |  | 10.2 µM (inactive) | 12.2 µM (inactive) | 12.9 µM (inactive) | 34.4 µM (inactive) | 28.2 µM (inactive) | 19.2 µM (inactive) | 22.2 µM (inactive)
COc1ccc(NC(=O)C2=CC(=O)c3ccc(O)cc3C2=O)c(OC)c1 | > 100 µM (inactive) | > 100 µM (inactive) | > 100 µM (inactive) | > 100 | > 100 µM (inactive) | > 100 µM (inactive) | > 100 µM (inactive) | > 100 µM (inactive) | > 100 µM (inactive) | > 100 µM (inactive) |  | > 100 µM (inactive) | > 100 µM (inactive) |  | > 100 µM (inactive) | > 100 µM (inactive) | > 100 µM (inactive)
O=C(N/C(=C\c1ccc([N+](=O)[O-])cc1)c1nc2ccccc2s1)c1ccccc1 | 30.7 µM (inactive) |  | 25.7 µM (inactive) | 27.2 | 37.4 µM (inactive) | 19.2 µM (inactive) |  | 18 µM (inactive) | 17.7 µM (inactive) | 31.9 µM (inactive) | 24.3 µM (inactive) | 28.6 µM (inactive) | 31.6 µM (inactive) | > 100 µM (inactive) |  | 23.6 µM (inactive) | 28.1 µM (inactive)
O=C(CC1C(=O)c2ccccc2C1=C1C(=O)c2ccccc2C1=O)c1ccccc1 (centres undefined) | > 100 µM (inactive) | > 100 µM (inactive) | > 100 µM (inactive) | 64.4 | > 100 µM (inactive) | > 100 µM (inactive) | > 100 µM (inactive) | 50.6 µM (inactive) | 30.3 µM (inactive) | > 100 µM (inactive) | > 100 µM (inactive) | > 100 µM (inactive) | > 100 µM (inactive) | > 100 µM (inactive) |  | > 100 µM (inactive) | > 100 µM (inactive)
CSc1nc2c(c(O)c(C)c(=O)n2C2OCC(OC(C)=O)C(OC(C)=O)C2OC(C)=O)c(=O)n1C (centres undefined) | > 100 µM (inactive) | > 100 µM (inactive) | > 100 µM (inactive) | > 100 | > 100 µM (inactive) | > 100 µM (inactive) | > 100 µM (inactive) | > 100 µM (inactive) | > 100 µM (inactive) | > 100 µM (inactive) | > 100 µM (inactive) |  | > 100 µM (inactive) | > 100 µM (inactive) | > 100 µM (inactive) | > 100 µM (inactive) | > 100 µM (inactive)
CCOC(=O)/C(=C/c1ccccc1)N(CC)CC | > 100 µM (inactive) | > 100 µM (inactive) | > 100 µM (inactive) | > 100 | > 100 µM (inactive) | > 100 µM (inactive) | > 100 µM (inactive) | > 100 µM (inactive) | > 100 µM (inactive) | > 100 µM (inactive) | > 100 µM (inactive) |  | > 100 µM (inactive) | > 100 µM (inactive) | > 100 µM (inactive) | > 100 µM (inactive) | > 100 µM (inactive)
CN/C(=N\C#N)N(Cc1ccccc1)Cc1ccccc1 | > 100 µM (inactive) | > 100 µM (inactive) | > 100 µM (inactive) | > 100 | > 100 µM (inactive) | > 100 µM (inactive) | > 100 µM (inactive) | > 100 µM (inactive) |  | > 100 µM (inactive) | > 100 µM (inactive) |  | > 100 µM (inactive) | > 100 µM (inactive) | > 100 µM (inactive) | > 100 µM (inactive) | > 100 µM (inactive)
COc1cc(CC2c3cc(OC)c(OC)cc3CCN2C)c(C(=O)O)cc1OC (centres undefined) | > 100 µM (inactive) | > 100 µM (inactive) | > 100 µM (inactive) |  | > 100 µM (inactive) | > 100 µM (inactive) |  | > 100 µM (inactive) | > 100 µM (inactive) | > 100 µM (inactive) | > 100 µM (inactive) | > 100 µM (inactive) | > 100 µM (inactive) | > 100 µM (inactive) | > 100 µM (inactive) | > 100 µM (inactive) | > 100 µM (inactive)
C/C=C1\CCC2c3[nH]c4ccccc4c3CCN2C1 (centres undefined) | > 100 µM (inactive) | > 100 µM (inactive) | 51.2 µM (inactive) |  | > 100 µM (inactive) |  | > 100 µM (inactive) | 70.1 µM (inactive) | 43.6 µM (inactive) | 21.5 µM (inactive) | 38.6 µM (inactive) | 66.4 µM (inactive) | 40 µM (inactive) | > 100 µM (inactive) | 55.5 µM (inactive) | > 100 µM (inactive) | 
O=C1CCC2(c3ccc(F)cc3)Nc3ccccc3N12 (centres undefined) | > 100 µM (inactive) | > 100 µM (inactive) | > 100 µM (inactive) | > 100 | > 100 µM (inactive) | > 100 µM (inactive) | > 100 µM (inactive) | > 100 µM (inactive) | > 100 µM (inactive) | > 100 µM (inactive) | > 100 µM (inactive) | > 100 µM (inactive) | > 100 µM (inactive) | > 100 µM (inactive) |  | > 100 µM (inactive) | > 100 µM (inactive)
